Holding throughout (assay type): cell-based
Data set [1] deals with neutrophils isolated from human blood. Description: Neutrophil migration assay (transwell). To be noted: 10 nM, positive control; HSA 0.4%. On the procedure: Peptides were synthesized and purified by the Microchemical Facility at Emory University or by SigmaGenesis. All peptides were analyzed by mass spectrometry after HPLC to assess purity. Approximately 0.5–2.0 milligrams of peptide were used to make fresh stock solutions (5 mg/mL in HBSS/HSA) for each migration assay. The peptide stock solutions were used to make more dilute solutions (1 mg/mL, 100 μg/mL, 10 μg/mL, 1 μg/mL, 100 ng/mL, and 10 ng/mL) in HBSS/HSA for the assays.
Neutrophils were isolated from human blood (collected in Vacutainerm tubes containing EDTA) by layering the blood/EDTA mixture (about 20 mL) on top of two layers of Histopaque™ 1119 (bottom layer, 18 mL) and 1077 (top layer, 7 mL) in 50 mL Falcon tubes. The tubes were centrifuged at 1800 rpm for 30 minutes (no brake). Four layers appeared in the tubes after the spin (from top to bottom layers): plasma, 1077, 1119, and red blood cells. The buffy coat between the plasma and 1077 layers contained lymphocytes, monocytes, and some platelets. The plasma layer, the buffy coat, and most of the 1077 layer was removed and discarded. The 1119 layer that contained the neutrophils was removed and was placed into a clean 50 mL tube. Dulbecco's Phosphate Buffered Saline (DPBS) was added to bring the volume to 50 mL. The cells were centrifuged for 15 minutes at 2100 rpm. The cells were resuspended in 10 mL of DPBS, transferred to 15 mL tubes, and centrifuged again for 10 minutes at 2000 rpm. This process was repeated to wash the cells a second time. After the supernatant was removed, the red blood cells were lysed by adding 6 mL of cold sterile water to each 15 mL of supernatant. Cells were mixed in the water for only 30 seconds. Six mL of cold 2% sterile saline was then added. Cells were centrifuged again for 10 minutes at 2000 rpm. The red supernatant (containing hemoglobin from red blood cells) was removed. This process of red blood cell lysis was repeated two more times to remove all of the red blood cells. After most of the red blood cells were removed, neutrophils were resuspended in 10 mL of HBSS/HSA for counting with trypan blue.
A neutrophil migration assay was performed in duplicate using a 24-well transwell plate (3 μm pore size for membrane). Transwell membranes were pre-moistened with 20–40 μL of HBSS/HSA (0.04–0.4%). Chemotactic solutions (500 μL) were added to the bottom of each well. […] Transwells were then placed into the chemotactic solutions. The plate was placed into the incubator (37° C., 5% CO2) for one hour. Cells that migrated through the membrane were counted using trypan blue.
In the neutrophil migration experiments, neutrophils that were isolated were approximately 95% viable. Neutrophils were resuspended in HBSS/0.4%HSA for this experiment. IL-8 (10 nM in the HBSS/0.4%HSA buffer) was used as a positive control for neutrophil migration.

Data set [2] is described as follows: Viability assay (MTT) in EpiDerm skin model. To be noted: human, EpiDerm skin model (MatTek), relative to PBS control, average over 500 μM and 2 mM, read-out: total average viability. An excerpt: FIG. 16 provides a bar graph showing the percent living cells, relative to a positive control, in a skin model after treatment with two concentrations of peptide. The first sample, treated with phosphate buffered saline (PBS), is the positive control used to establish the cell count representing 100% viability. The second sample is a negative control where cells were exposed to 1% Triton-X100, showing that the assay can detect cell death. […] Data shown represent the average of three tests.
The sample containers were transferred to 6 well plates that contained fresh media. All peptides were dissolved in PBS at a final concentration of 10 mM, and 100 μL each peptide solution was pipetted onto the surface of the Epiderm sample container. Incubation was continued for 12 hours at 37° C., 5% CO2. After the incubation period, the sample containers were washed three times with PBS and the sample containers were transferred to a 24 well plate that contained 300 μL of MTT assay media per well (MTT concentration was 1 mg/mL). The colorimetric assay was allowed to develop for three hours (incubation at 37° C., 5% CO2). Sample containers were then transferred to a 24 well culture plate that contained 2 mL of isopropanol per well. Extraction of the colored precipitate occurred over a period of four hours at room temperature. Absorbance readings were taken at 570 nm and 650 nm for each sample. The percent viability of each sample relative to a PBS control was calculated as: 100×(OD570^sam−OD650^sam)/(OD570^con−OD650^con) (6) Routinely, the peptide sample was assayed in triplicate. Results The sequence of matrix metalloproteinase-2 (SEQ ID NO:14) is provided below to facilitate definition of the various domains and regions in matrix metalloproteinases.

In data set [3] the test system is normal human dermal fibroblasts (NHDF). Description: NHDF migration assay (48-well chemotaxis chamber). To be noted: three hours. Here is the method:
Normal, human dermal fibroblasts (NHDF) were obtained from Biowhittaker, (Walkersville, Md.) and propagated in T75 flasks in FBM media (500 mL, Biowhittaker) containing insulin, hFGF-b, GA-1000, and fetal bovine serum (10 mL) for up to 12 passages. For the migration assay, NHDF were washed once with 10 mL of Hank's buffered saline solution (HBSS). Three milliliters of trypsin (0.25%) in EDTA were added to the T75 flask for no more than five minutes to remove NHDF from the flask. NHDF in trypsin solution were added to 7 mL of FBM with no supplements added. NHDF were centrifuged for 5 minutes, and the supernatant was removed. NHDF were resuspended in 10 mL of FBM for counting. NHDF were centrifuged for another 5 minutes, and the supernatant was removed. NHDF were resuspended at 1×10^6 cells per mL in FBM without supplements. It was important to use FBM media only in migration assays because the complete media contains fibroblast growth factor and serum, both of which will trigger migration of fibroblasts.
Peptides were synthesized and purified by the Microchemical Facility at Emory University or by SigmaGenesis. All peptides were analyzed by mass spectrometry after HPLC to assess purity. Approximately 0.5–2.0 milligrams of peptide were used to make fresh stock solutions (5 mg/mL in PBS) for each migration assay. The peptide stock solutions in PBS were used to make more dilute solutions (1 mg/mL, 100 μg/mL, 10 μg/mL, 1 μg/mL, 100 ng/mL, 10 ng/mL) in FBM (without supplements) for the migration assays.
Polyvinylpyrrolidone-free polycarbonate membranes with […] pores (Neuroprobe, Inc., Gaithersburg, Md.) were washed with 90% ethanol for 15 minutes and rinsed four times with deionized water. Membranes were then placed into a glass dish containing an aqueous solution of 5 μg/mL gelatin. The glass dish was placed in to a water bath at about 90° C. for one hour. Membranes were removed from the gelatin solution and were allowed to dry for one hour in the 37° C. incubator.
A 48-well chemotaxis chamber (Neuroprobe, Inc., Gaithersburg, Md.) (see FIG. 20) was used for the migration assays. Twenty-eight/μL of each test solution were added to the bottom wells of the chamber in quadruplicate. A gelatin-treated membrane was placed carefully on top of the bottom wells. The gasket and top part of chamber were then placed carefully on top of the membrane. The apparatus was tightened using six thumbscrews. A solution of NHDF containing an estimated cell density (2×10^5 cells per mL) was made by adding 320 μL of the 1×10^6 cells per mL solution to 1.28 mL of FBM (no supplements). Fifty microliters of the 2×10^5 cells per mL NHDF solution were added to the top part of each well in the chamber. The chamber was placed in the incubator at 37° C./5% CO2 for three hours. The chamber was removed, the thumbscrews were removed, and the chamber was turned upside down on a paper towel. […] The membrane was carefully removed. […] The membrane was fixed with methanol and stained using the Diff-Quik Staining Solutions I and II. The nuclei of NHDF are stained purple. The membrane was mounted on a glass slide using cedarwood immersion oil and a cover slip. […] The average number of migrated NHDF in the negative control was subtracted from the experimental (peptide) data and positive control data.

Ends that are not written are not given here.

With “IL-8: positive control for neutrophil migration (10 nM in HBSS/HSA buffer) [reference compound]”, in data set [1], the “Percent Neutrophil Migration exp.1” value is listed as 81%.

Usually viability stands for a per cent measure of how many cells are alive, often set against a control. As to NYNFFPRKPK [10-mer], the viability at 12 h in data set [2] is 89.6%. For the same substance, the entries for the “percent of migrated NHDF compared to plasma fibronectin positive control” value in data set [3] (100 μg/mL peptide) and in data set [3] (1000 μg/mL peptide) were 11±0% and 30±2%, respectively.

Take PRCGNPDVA [9-mer]: in data set [2], the viability at 12 h came to 95.8%. The “percent of migrated NHDF compared to plasma fibronectin positive control” value in data set [3] (100 μg/mL peptide) is 16±0%; in data set [3] (1000 μg/mL peptide), 32±2%.

Source of the values: US7094754B2, “Anti-aging and wound healing compounds” (Kimberly-Clark Worldwide, Inc., priority 2001, dated 2006).
